Assay results: patent US7109160B1, “Peptides containing the motif IGD and their use as cell migration modulators” (University of Dundee, priority 1997, dated 2006)
“Also recorded” adds a separate entry of the source.

Columns and labels:
[1] = test system: human skin fibroblasts (SK319 and FSF44); experiment: Transmembrane migration assay (membranes coated with native type I collagen or gelatin); format: cell-based; conditions: FIG. 2
Experimental: Assays were performed as described in Materials and Methods in Example 1. Results from five experiments are presented as mean ±SD. Shaded area indicates the spread of standard deviations for data points not plotted with error bars. Panel A: results obtained with IGDS (SEQ ID NO 2) and the gelatin-binding domain (Gel-BD) on membranes coated with native collagen and gelatin. Panel B: results obtained with RGDS (SEQ ID NO 6), native fibronectin (FN), and its cell-binding domain (Cell-BD).
(§1) Cells. Experiments were performed with two lines of human skin fibroblasts (SK319 and FSF44, between passage 10–18) shown to be free of mycoplasmal contamination by staining with Hoechst 33256. Identical results were obtained with both lines and these cells are consequently not individually identified in the Figures. Stock cultures were maintained in Eagle's Minimal Essential (MEM), as previously described^7.
Polycarbonate membranes used in the transmembrane assay were immersed in an aqueous solution containing 10 μg/ml of either native type I collagen or heat-denatured type I collagen (gelatin) overnight at 37° C. and then air-dried. Assays were performed as previously described^7.

[2] = test system: human skin fibroblasts (SK319 and FSF44); experiment: Collagen gel assay with combinations of peptides (co-incubation); format: cell-based; conditions: FIG. 3A
Experimental: The collagen gel assay was performed in the presence of various combinations of the indicated peptides and the percentage of cells present within the gel matrix measured after a four-day incubation period. Data are expressed as mean ±SD obtained in three experiments. Panel A: combinations of the gelatin-binding domain (Gel-BD) and IGDS (SEQ ID NO 2); Panel B: combinations of IGDS (SEQ ID NO 2) and RGDS (SEQ ID NO 6); Panel C: combinations of IGDS (SEQ ID NO 2) and the cell-binding domain (Cell-BD).
(§2) Migration Assays. In the collagen gel assay, pre-formed 2 ml gels were overlaid with 1 ml of serum-free MEM (controls) or serum-free MEM containing the requisite concentration of effector molecule to give the desired final concentration. Trypsinised fibroblasts were suspended in serum-free MEM to give an inoculum containing 2×10^5 cells/ml and 1 ml of this was plated onto replicate control and test gels.
The possible mechanistic relationship between IGDS (SEQ ID NO 2) and the gelatin-binding domain in which it is contained was further examined by co-incubating cells with suboptimal concentrations of each.
Possible mechanistic interactions between IGDS (SEQ ID NO 2) and RGDS (SEQ ID NO 6) were studied in similar co-incubation experiments.

[3] = test system: human skin fibroblasts (SK319 and FSF44); experiment: Native collagen gel migration assay; format: cell-based
Experimental: Assays were performed as described in Materials and Methods in Example 1. Results are normalised by expressing them as “relative stimulation” of migration, this being calculated by dividing the percentage of cells in the gel matrix for each experimental point by the control value obtained in that particular experiment. Data are presented as the mean ±SD of five experiments. For clarity, the shaded area indicates the spread of standard deviations for data points not plotted with error bars. Upper panel: results obtained with the indicated synthetic peptides. Lower panel: results obtained with native fibronectin (FN), and its cell-binding (Cell-BD) and gelatin-binding (Gel-BD) domains.
as §1, §2

[4] = test system: chick yolk sac membrane; experiment: Chick yolk sac membrane angiogenesis assay; format: in vivo; conditions: for Positive responses (%) / Positive responses (positive/total): assessed after 24 hr
Text: Dried methylcellulose pellets containing the test samples and control pellets (lacking the test samples) were placed on the yolk sac membrane of 6-day chick embryos, as described in Materials and Methods in Example 1. The elicited reaction was checked after six hours and assessed after 24 hr by observation of living embryos with a stereomicroscope. […] After assessment at 24 hr, selected membranes were fixed in 2.5% EM grade glutaraldehyde in 0.2 M phosphate buffer, pH 7.4. These preparations were then stained with 1% toluidine blue and photographed using a Leica DM LB microscope. […] Bar=250 μm.
Chick yolk sac membrane angiogenesis assay. The assay was performed essentially as described by Gush et al (1990) J. Med. Engineer. Tech. 14, 205–209. Accordingly, four-day-old fertilised eggs were cracked in a tumbler, covered with a Petri dish and incubated at 37° C. Two days later dried methylcellulose pellets containing the test samples and control pellets (lacking the test samples) were placed on the yolk sac membrane. The elicited angiogenic reaction was assessed after 24 hr by observation of living embryos with a stereomicroscope. Selected membranes were fixed in 2.5% EM grade glutaraldehyde in 0.2 M phosphate buffer (pH 7.4), dissected, stained with 1% toluidine blue and mounted on glass slides for photomicroscopy.

[5] = test system: human skin fibroblasts (SK319 and FSF44); experiment: Pre-incubation of cells with IGDS, subsequent migration in native collagen gel assay; format: cell-based
Experimental: Confluent cells on plastic tissue culture dishes were washed 3× with serum-free MEM (SF-MEM) and then incubated for various times with the indicated concentrations of IGDS (SEQ ID NO 2) in SF-MEM. They were then trypsinised and washed extensively by repeated (5×) cycles of centrifugation and resuspension in SF-MEM. The behaviour of these pre-incubated cells was assessed in the collagen gel assay in the absence of further IGDS (SEQ ID NO 2)(indicated as IGDS (SEQ ID NO 2) not in assay). […] Data were obtained from three experiments and are expressed as mean ±SD.
as §2

[6] = test system: rat wound healing model; experiment: Rat wound healing model (subcutaneous porcine dermal collagen film implants); format: in vivo; conditions: 1 μg/ml in collagen film, implanted subcutaneously, 28 days, p < 0.01
Text: In this experimental system, 1 cm^2 pieces of porcine dermal collagen films impregnated with either control medium or medium containing the indicated concentration of test substance were implanted subcutaneously into rats. The animals were sacrificed 28 days later and the removed collagen implants fixed and sectioned for image analysis.

Ile-Gly-Asp-Ser (IGDS; listed as Homo sapiens)
effect on cell migration through gelatin-coated membranes ([1]; gelatin (heat-denatured type I collagen)-coated membranes): devoid of activity | effect on cell migration through membranes coated with native collagen ([1]; native type I collagen-coated membranes): stimulated cell migration | activity on cell migration when present on its own ([2]; 0.01 μM (10^7 fM)): inactive | effect upon cell migration of co-incubation with the gelatin-binding domain ([2]; suboptimal concentrations of each): additive effect | concentration at which significant bioactivity (migration stimulation) is first manifest ([3]; collagen gel assay, FIG. 1A): 0.1 µM | shape of dose-response ([3]; collagen gel assay, FIG. 1A): bell-shaped dose-response | effect on cell migration into native type I collagen gels ([3]; human dermal fibroblasts, 4-day incubation, FIG. 1): stimulated cell migration | Positive responses (%) ([4]; 5 ng/pellet): (50) % | Positive responses (positive/total) ([4]; 5 ng/pellet): 3/6 | Positive responses (%) ([4]; 50 ng/pellet): (64) % | Positive responses (positive/total) ([4]; 50 ng/pellet): 7/11 | Positive responses (%) ([4]; 250 ng/pellet): (77) % | Positive responses (positive/total) ([4]; 250 ng/pellet): 10/13 | Positive responses (%) ([4]; 1000 ng/pellet): (64) % | Positive responses (positive/total) ([4]; 1000 ng/pellet): 9/14 | Positive responses (%) ([4]; 3000 ng/pellet): (78) % | Positive responses (positive/total) ([4]; 3000 ng/pellet): 7/9 | angiogenic response in the chick yolk sac membrane, in words ([4]; in vivo): elicited an angiogenic response; also recorded: stimulates angiogenesis | angiogenic response elicited by pellet ([4]; pellet containing 1.0 μg, 6-day chick embryos, 24 hr, FIG. 7): positive angiogenic response | persistence of effect on cell migration after pre-incubation ([5]; assayed in absence of further IGDS, dependent on pre-incubation time and peptide concentration, FIG. 4): persistent | elevated migratory behaviour still manifest following passages in vitro ([5]; pre-incubated cells, data not shown): 1–2 passages | Fibroblasts (% field) ([6]; control 8.3 ± 6.7): 18.2 ± 9.4 % field | Vessels (per field) ([6]; control 15.3 ± 5.5): 26.7 ± 6.4 per field
